Results published in patent publication US12419917B2, “Compositions and methods for treatment of conditions using fractionated honey” (NDAL MFG INC, priority 2021, dated 2025).

Tested on: SARS-CoV-2
Type: cell-based
Settings: 1-hour contact at 22 ± 2° C., cleanser 100%, ethanol 70%

CCO [Ethanol]
LRV (log reduction value) compared to the virus control (<1 log reduction not considered active): >4.3 | Virus Titer (virus control titer 5.0, limit of detection 0.7): <0.7 log10 CCID50 of virus per 0.1 mL
